Reference: paper PMC10272112 (Nature Communications, 2023)
Read-outs that look alike come from different tables or passages of the source.

How the values were obtained:
[1] = target: HDACs (HDAC1, HDAC2, HDAC6); assay: Chemoproteomic competition pulldown assay (HDAC panel); assay type: binding
Protocol: (§1) To identify proteins directly bound by lipoic acid, we employed a chemoproteomic competition assay. Briefly, (R/S)-LA was immobilized on sepharose beads via an amidation reaction to form an affinity matrix (abbreviated as iL; Fig. 1a). This affinity matrix can be incubated with cell lysate to pull down potential LA or LM target proteins and identify these targets via bottom-up proteomics. In a competition assay, free LA or LM were incubated with lysate at different concentrations before pulling down and quantifying target proteins. […] (Fig. 1b, see “Methods” for details). […] The lysate buffer used in this assay contains 1 mM DTT to mimic the intracellular reductive milieu and to reduce lipoic acid and LM. […] Additional competition assays performed in lung adenocarcinoma cell A549 lysate also identified HDAC1, HDAC2, and HDAC6 as targets (Supplementary Fig. 1b). Amongst the three cell lines tested, HDACs were the only confidently identified targets across the 1500–3000 proteins quantified in these assays. […] We validated the results by analogous pulldown competition assays using two other affinity matrices prepared via the immobilization of either the HDAC inhibitor Quisinostat (iQ) and an analog of the class IIa HDAC inhibitor Bürli’s 31[14] (iC)[12]. We have previously shown that these affinity matrices specifically bind to the active sites of HDACs and have used them for HDACi selectivity profiling. Indeed, binding of (R/S)-LA and (R/S)-LM to HDAC1, HDAC2, HDAC3, HDAC6, and, to a lesser extent, HDAC8 was confirmed in these assays (Supplementary Fig. 1c, d). No binding to class IIa HDACs or the recently discovered common HDAC inhibitor off-target MBLAC2 was observed (Supplementary Fig. 1e)[12]. […] This observation might reflect electrostatic repulsion between the HDAC10 active site gate-keeper glutamic acid residues[15],[16] and the terminal carboxylic acid of LA.
To assess the degree of protein depletion from lysates by the affinity matrix, a second pulldown (PDPD) with fresh beads was performed using the unbound protein fraction from the vehicle control flow through. The beads were washed (1 × 1 mL of lysis buffer without inhibitors and only 0.4% Igepal, 2 × 2 mL of lysis buffer without inhibitors and only 0.2% Igepal), and captured proteins were denatured with 8 M urea buffer, alkylated with 55 mM chloroacetamide and digested with Trypsin according to standard procedures. […]
For the competition assays, relative binding was calculated based on the protein intensity ratio to the DMSO control for every single inhibitor concentration. […] The correction factor is determined by calculating the ratio of the protein intensity of two consecutive pulldowns of the vehicle control sample[13]. […]

[2] = system: HDAC1,2,3,6,8; assay: HDAC-Glo assay (panel); assay type: biochemical, human; settings: for HDAC inhibition by the oxidized form: absence of TCEP; for EC50: with TCEP, range over HDAC1,2,3,6,8, read-out: EC50 of HDAC inhibition, reduced form
Protocol: To validate the inhibition of HDACs by LA and LM and elaborate on the structure-activity relationship (SAR) of enantiomers as well as oxidized versus reduced forms of the molecules, we performed enzyme activity assays for recombinant HDAC1,2,3,6,8 as well as FRET-based binding assay for recombinant HDAC10.
The experiments were performed according to ref. [48]. […] Drug dosing was performed with a D300e Digital Dispenser (Tecan). HDACs (7 ng/mL for HDAC1, 25 ng/mL for HDAC2, 200 ng/mL for HDAC3/Ncor2 complex, 100 ng/mL for HDAC6, 200 ng/mL for HDAC8) and inhibitors were incubated together at room temperature (RT) for 30 min. After the addition of the HDAC-Glo™ I/II reagent, plates were shaken (800 rpm orbital shaker, 30 s), centrifuged (300 g, 1 min), and incubated at RT for 30 min. Luminescence was detected with a CLARIOstar (BMG Labtech) plate reader.

[3] = system: α-Tubulin AcK40; assay: α-tubulin acetylation detection by western blot, CBP-HA transfected HEK293T; assay type: cell-based; settings: for concentration showing substantial increase of α-Tubulin AcK40 acetylation: 7 h drug incubation; for α-Tubulin AcK40 acetylation level relative to control: HEK293T
Protocol: 0.2 × 10^6 HEK293T (ATCC: CRL-3216) cells were transfected with pcDNA 3.1-HA CBP plasmids (1 μg/well for the 6-well plate) by FuGENE. After 2 days, cells were treated with ACY-738, lipoic acid, and lipoamide for 7 h, then were washed by ice-cold PBS and lysed in Triton lysis buffer (50 mM Tris, pH 8.0, 150 mM NaCl, 1 mM EDTA, 0.1% TritonX-100 and complete EDTA-free protease inhibitors (Roche)) for analysis. To detect protein acetylation, 0.2 μM Trichostatin A and 5 mM nicotinamide were added to PBS for washing, and 10 μM trichostatin A, 10 mM nicotinamide, and 50 mM sodium butyrate were added to Triton lysis buffer.

[4] = system: GSE1; assay: Chemoproteomic competition pulldown assay (co-competed CoREST partner); assay type: binding
Protocol: as §1
To assess the degree of protein depletion from lysates by the affinity matrix, a second pulldown (PDPD) with fresh beads was performed using the unbound protein fraction from the vehicle control flow through. The beads were washed (1 × 1 mL of lysis buffer without inhibitors and only 0.4% Igepal, 2 × 2 mL of lysis buffer without inhibitors and only 0.2% Igepal), and captured proteins were denatured with 8 M urea buffer, alkylated with 55 mM chloroacetamide and digested with Trypsin according to standard procedures. The resulting peptides were desalted on a C18 filter plate (Sep-Pak® tC18 µElution Plate, Waters), vacuum dried, and stored at −20 °C until LC–MSMS measurement.
For the competition assays, relative binding was calculated based on the protein intensity ratio to the DMSO control for every single inhibitor concentration. EC50 values were derived from a four-parameter log-logistic regression with variable slope (constrain: bottom > 0). The obtained EC50 values were multiplied with a protein-dependent correction factor (cf), resulting in the apparent Kd value (Kd^app). The correction factor is determined by calculating the ratio of the protein intensity of two consecutive pulldowns of the vehicle control sample[13]. Targets of the inhibitors were annotated manually according to published procedures[12],[46],[47]. […] Additionally, the number of unique peptides and MSMS counts per condition were taken into account. Positive target binding across several independent experiments performed with different cell lysates further substantiated our confidence for a true positive drug-target binding event.

[5] = iL, SW620 lysate, 1 mM DTT, range over HDAC1, HDAC2, HDAC6, read-out: affinities (Kd app)
[6] = iQ, SW620 lysate, log10 M -3.52288
[7] = iQ, SW620 lysate, log10 M -4.52288
[8] = iQ, SW620 lysate, log10 M -5.52288
[9] = iQ, SW620 lysate, log10 M -6.52288

| SMILES | Kd [1, 5] [µM] | HDAC inhibition by the oxidized form [2] | EC50 [2] [µM] | concentration showing substantial increase of α-Tubulin AcK40 acetylation [3] [µM] | α-Tubulin AcK40 acetylation level relative to control ([3]; 1 mM) [fold] | α-Tubulin AcK40 acetylation level relative to control ([3]; .5 (mM)) [fold] | relative binding vs DMSO [4, 6] | relative binding vs DMSO ([4]; iQ, SW620 lysate, log10 M -4) | relative binding vs DMSO [4, 7] | relative binding vs DMSO ([4]; iQ, SW620 lysate, log10 M -5) | relative binding vs DMSO [4, 8] | relative binding vs DMSO ([4]; iQ, SW620 lysate, log10 M -6) | relative binding vs DMSO [4, 9] | relative binding vs DMSO ([4]; iQ, SW620 lysate, log10 M -7) | other results |
| --- | --- | --- | --- | --- | --- | --- | --- | --- | --- | --- | --- | --- | --- | --- | --- |
| O=C(O)CCCCC1CCSS1 (racemic) [(R/S)-LA, (R/S)-lipoic acid] | 3 to 33 | diminished activity | 1 to 44 | 50 | 3.4 | 2 | 0.1048 | 0.1152 | 0.3197 | 0.4493 | 0.5952 | 0.7905 | 0.8177 | 0.7924 | EC50 ([1]; peer review response, read-out: EC50 in chemoproteomic competition assays): 5 to 30 µM; Kd ([1]; peer review response, read-out: potency of target binding (Kd)): 5 to 30 µM; relative binding vs DMSO ([4]; iL, A549 lysate, log10 M -4): 0.002926; relative binding vs DMSO ([4]; iL, A549 lysate, log10 M -4.52288): 0.03688; relative binding vs DMSO ([4]; iL, A549 lysate, log10 M -5): 0.08918; relative binding vs DMSO ([4]; iL, A549 lysate, log10 M -5.52288): 0.4136; relative binding vs DMSO ([4]; iL, A549 lysate, log10 M -6): 0.8054; relative binding vs DMSO ([4]; iL, A549 lysate, log10 M -6.52288): 1.293; relative binding vs DMSO ([4]; iL, A549 lysate, log10 M -7.52288): 1.282; relative binding vs DMSO ([4]; iL, A549 lysate, log10 M -8): 1.353; relative binding vs DMSO ([4]; iL, A549 lysate, log10 M -8.52288): 1.278; relative binding vs DMSO ([4]; iL, SW620 lysate, log10 M -3.52288): 0; relative binding vs DMSO ([4]; iL, SW620 lysate, log10 M -4): 0; relative binding vs DMSO ([4]; iL, SW620 lysate, log10 M -4.52288): 0; relative binding vs DMSO ([4]; iL, SW620 lysate, log10 M -5): 0.09089; relative binding vs DMSO ([4]; iL, SW620 lysate, log10 M -5.52288): 0.3606; relative binding vs DMSO ([4]; iL, SW620 lysate, log10 M -6): 1.287; relative binding vs DMSO ([4]; iL, SW620 lysate, log10 M -6.52288): 0.7924; relative binding vs DMSO ([4]; iL, SW620 lysate, log10 M -7): 1.217 |
| NC(=O)CCCCC1CCSS1 (racemic) [(R/S)-LM, (R/S)-lipoamide] | 3 to 33 | No activity at all | 1 to 44 | 50 | 4.0 | 2.5 | 0.1386 | 0.1278 | 0.3991 | 0.559 | 0.8469 | 1.003 | 0.8631 | 0.9076 | α-Tubulin AcK40 acetylation level relative to control ([3]; 1 mM, listed as LM): 4 fold; relative binding vs DMSO ([4]; iL, MV4-11 lysate, log10 M -3.52288): 0.03208; relative binding vs DMSO ([4]; iL, MV4-11 lysate, log10 M -4): 0.05802; relative binding vs DMSO ([4]; iL, MV4-11 lysate, log10 M -4.52288): 0.1417; relative binding vs DMSO ([4]; iL, MV4-11 lysate, log10 M -5): 0.4933; relative binding vs DMSO ([4]; iL, MV4-11 lysate, log10 M -5.52288): 0.6793; relative binding vs DMSO ([4]; iL, MV4-11 lysate, log10 M -6): 0.8351; relative binding vs DMSO ([4]; iL, MV4-11 lysate, log10 M -6.52288): 0.9265; relative binding vs DMSO ([4]; iL, MV4-11 lysate, log10 M -7): 0.8883 |
